Laboratory results taken from patent US11414454B2, “Compositions, methods, and systems for affinity-based protein identification and purification” (Auctus Biologies, Inc., priority 2017, dated 2022).

Tested on: RPtag (large)
Assay: Association/dissociation kinetics of RPtag (small) peptides with RPtag (large) by fluorescence anisotropy
Type: binding, Thermoanaerobacter tengcongensis
Conditions: for koff: LS dissociation, unlabeled competitor peptide; for kon (M^−1 min^−1 ) (×10^7): S*-LS transition, calculated from measured koff and Kd
Method: Panel a depicts representative association rate kinetics traces varying native RPtag small. Rhodamine labeled RPtag small at the indicated concentration was incubated with unlabeled RPtag large and the association measured by fluorescence anisotropy. L-S complex concentration was calculated by the equation (r−rmin)/(rmax−rmin)*[S] where r is the measured anisotropy, rmin is the anisotropy in the absence of any RPtag large, rmax is the anisotropy measured in the presence of at saturating RPtag large, and [S] is the total concentration of RPtag small used in the experiment. […] Dashed cyan lines are simulations of the mechanism shown in f using the rate constants detailed herein. The concentrations in the simulations were multiplied by a correction factor of 0.925, which is well within the 90% purity specification of the purchased peptide.
LS complex was performed by incubating 1000 nM RPtag large with the indicated concentrations of rhodamine labeled RPtag small. At the start of the experiment, 0.1 mM unlabeled native RPtag small was added and fluorescence anisotropy monitored. Data processing was done as in panel a, except the red fits were to the single exponential decay equation y=y0+A*exp(−b*t). As expected, the initial dissociation rates were linear with respect to the LS complex.
Fitting to a line yields a rate constant (koff)=0.0091 min^−1 (FIG. 9 panel e). In good agreement, when the kinetics are fit with a first order rate law, a rate constant of 0.012±0.002 min^−1 (n=15) was observed. […] Panel e is a graph of the initial rates of the traces represented in d. Slope of the fit line is 0.0091 min^−1. Data are mean±SE (n=3).
The library of mutant RPtag(small) peptides, described above, was next analyzed to measure off rates (koff). The on rate was also calculated from measured koff and Kd (S*-LS transition), except instead of using unlabeled native peptide as the competitor, we used unlabeled Nd2,P5A,E18A (the tightest binding RPtag(small) peptide identified). […] However, there were notable exceptions. […] This indicates, without wishing to be limited, that P5 may constrain the structure of the peptide. The increased flexibility imparted to the peptide by the P5A mutation may decrease the energy barrier required for binding/unbinding.

RPtag (large), sequence (as listed by the source): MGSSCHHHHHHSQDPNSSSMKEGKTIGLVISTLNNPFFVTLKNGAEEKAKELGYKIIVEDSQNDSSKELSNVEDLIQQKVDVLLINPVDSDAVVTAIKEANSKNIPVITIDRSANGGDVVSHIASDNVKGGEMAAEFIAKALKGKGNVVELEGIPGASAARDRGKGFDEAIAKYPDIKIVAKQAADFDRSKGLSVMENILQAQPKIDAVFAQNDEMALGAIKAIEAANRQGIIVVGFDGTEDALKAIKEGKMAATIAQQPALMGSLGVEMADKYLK

Substance	koff	kon (M^−1 min^−1 ) (×10^7)
AELKLITKENVQ [Nd9]	0.00667 ± 0.00067 s⁻¹	8.2 ± 0.9 ×10^7 M^−1 min^−1
AIANFIPAELKLITKENVQ [Nd2, k3a, p5a]	0.00015 ± 6.7e-06 s⁻¹	
EKIPNFIPAELKLITKENVQ [Nd1]	0.000147 ± 1.7e-06 s⁻¹	3.4 ± 0.1 ×10^7 M^−1 min^−1
ELKLIT [Nd10, Cd5]	>0.033 s⁻¹	
ELKLITKA [Nd10, Cd3, e18a]	>0.033 s⁻¹	
ELKLITKE [Nd10, Cd3]	>0.033 s⁻¹	
ELKLITKENVQ [Nd10]	0.00417 ± 0.00067 s⁻¹	4.3 ± 0.7 ×10^7 M^−1 min^−1
FIPAELKLITKA [Nd6, Cd3, e18a]	>0.033 s⁻¹	
FIPAELKLITKE [Nd6, Cd3]	>0.033 s⁻¹	
FIPAELKLITKENVQ [Nd6]	0.00108 ± 5e-05 s⁻¹	12 ± 1 ×10^7 M^−1 min^−1
GEAIPNFIPAELKLITKENVQ [k3a]	8.83e-05 ± 1.2e-05 s⁻¹	1.1 ± 0.1 ×10^7 M^−1 min^−1
GEKAPNFIPAELKLITKENVQ [i4a]	0.0001 ± 3.3e-06 s⁻¹	
GEKIANFIPAELKLITKENVQ [p5a]	0.0004 ± 3.3e-05 s⁻¹	
GEKIPAFIPAELKLITKENVQ [n6a]	2.5e-05 ± 5e-06 s⁻¹	0.45 ± 0.09 ×10^7 M^−1 min^−1
GEKIPNAIPAELKLITKENVQ [f7a]	0.00105 ± 5e-05 s⁻¹	3.1 ± 0.1 ×10^7 M^−1 min^−1
GEKIPNFAPAELKLITKENVQ [i8a]	0.0015 ± 0.00015 s⁻¹	8.6 ± 0.9 ×10^7 M^−1 min^−1
GEKIPNFIAAELKLITKENVQ [p9a]	4e-05 ± 6.7e-06 s⁻¹	1.4 ± 0.2 ×10^7 M^−1 min^−1
GEKIPNFIPAALKLITKENVQ [e11a]	0.000112 ± 8.3e-06 s⁻¹	0.46 ± 0.06 ×10^7 M^−1 min^−1
GEKIPNFIPAEAKLITKENVQ [l12a]	0.00333 ± 0.001 s⁻¹	4.3 ± 1.2 ×10^7 M^−1 min^−1
GEKIPNFIPAELKAITKENVQ [l14a]	>0.033 s⁻¹	
GEKIPNFIPAELKL [Cd7]	>0.033 s⁻¹	
GEKIPNFIPAELKLATKENVQ [i15a]	0.0183 ± 0.005 s⁻¹	25 ± 6 ×10^7 M^−1 min^−1
GEKIPNFIPAELKLI [Cd6]	>0.033 s⁻¹	
GEKIPNFIPAELKLIAKENVQ [t16a]	0.00148 ± 5e-05 s⁻¹	7.5 ± 0.3 ×10^7 M^−1 min^−1
GEKIPNFIPAELKLIT [Cd5]	0.0065 ± 0.00383 s⁻¹	11 ± 7 ×10^7 M^−1 min^−1
GEKIPNFIPAELKLITAENVQ [k17a]	9.5e-05 ± 3.3e-06 s⁻¹	1.0 ± 0.1 ×10^7 M^−1 min^−1

Substance	koff	kon (M^−1 min^−1 ) (×10^7)
GEKIPNFIPAELKLITK [Cd4]	0.00367 ± 0.00033 s⁻¹	22 ± 2 ×10^7 M^−1 min^−1
GEKIPNFIPAELKLITKE [Cd3]	0.002 ± 0.00033 s⁻¹	
GEKIPNFIPAELKLITKEN [Cd2]		9.8 ± 0.3 ×10^7 M^−1 min^−1
IANFIPAELKLITKANVQ [Nd3, p5a, e18a]	0.000967 ± 3.3e-05 s⁻¹	9.2 ± 0.4 ×10^7 M^−1 min^−1
IPAELKLITKENVQ [Nd7]	0.0007 ± 0.000167 s⁻¹	1.8 ± 0.4 ×10^7 M^−1 min^−1
IPNFIPAELKLITKENVQ [Nd3]	0.0002 ± 1.7e-05 s⁻¹	8.8 ± 0.3 ×10^7 M^−1 min^−1
KIANFIPAELKLITK [Nd2, Cd4, p5a]	0.003 ± 0.00017 s⁻¹	22 ± 1 ×10^7 M^−1 min^−1
KIANFIPAELKLITKA [Nd2, Cd3, p5a, e18a]	0.003 ± 0.00017 s⁻¹	33 ± 2 ×10^7 M^−1 min^−1
KIANFIPAELKLITKANAA [Nd2, p5a, e18a, v20a, q21a]	0.000217 ± 1.7e-05 s⁻¹	20 ± 1 ×10^7 M^−1 min^−1
KIANFIPAELKLITKE [Nd2, Cd3, p5a]		26 ± 1 ×10^7 M^−1 min^−1
KIPNFIPAELKLITK [Nd2, Cd4]	0.00132 ± 0.0001 s⁻¹	20 ± 2 ×10^7 M^−1 min^−1
KIPNFIPAELKLITKA [Nd2, Cd3, e18a]	0.000883 ± 3.3e-05 s⁻¹	40 ± 2 ×10^7 M^−1 min^−1
KIPNFIPAELKLITKANAA [Nd2, e18a, v20a, q21a]	0.000383 ± 1.7e-05 s⁻¹	3.6 ± 0.3 ×10^7 M^−1 min^−1
KIPNFIPAELKLITKANVQ [Nd2, e18a]	0.000138 ± 1.67e-05 s⁻¹	6.5 ± 0.7 ×10^7 M^−1 min^−1
KIPNFIPAELKLITKE [Nd2, Cd3]	0.000767 ± 3.3e-05 s⁻¹	8.2 ± 0.3 ×10^7 M^−1 min^−1
KIPNFIPAELKLITKENVQ [Nd2]	5.83e-05 ± 1.3e-05 s⁻¹	5.3 ± 1.3 ×10^7 M^−1 min^−1
KLITKENVQ [Nd12]	>0.033 s⁻¹	
LITKENVQ [Nd13]	>0.033 s⁻¹	
LKLITKENVQ [Nd11]	0.02 ± 0.01 s⁻¹	7.1 ± 3.8 ×10^7 M^−1 min^−1
NFIPAELKLITKENVQ [Nd5]	0.000933 ± 1.7e-05 s⁻¹	9.6 ± 0.1 ×10^7 M^−1 min^−1
PAELKLITKA [Nd8, Cd3, e18a]	>0.033 s⁻¹	
PAELKLITKE [Nd8, Cd3]	>0.033 s⁻¹	
PAELKLITKENVQ [Nd8]	0.000917 ± 3.3e-05 s⁻¹	9.3 ± 0.3 ×10^7 M^−1 min^−1
PNFIPAELKLITKENVQ [Nd4]	0.000467 ± 1.7e-05 s⁻¹	9.4 ± 0.4 ×10^7 M^−1 min^−1
RIANFIPAELKLITKANVQ [Nd2, k3r, p5a, e18a]	0.000217 ± 1.7e-05 s⁻¹	3.4 ± 0.1 ×10^7 M^−1 min^−1
